Data on one compound can be found in paper doi:10.1101/2023.07.31.551370, “A diversified, widespread microbial gene cluster encodes homologs of methyltransferases involved in methanogenesis” (bioRxiv, 2023).

Experiment [1] has as its system T1, ClMlp2.
T1 construct: gene mlp2; recombinant ClMlp2
The experiment is described as follows: UV-visible spectroscopy, loss of methylcob(III)alamin absorbance at […] nm, steady-state kinetics. The experiment is classed as biochemical, Clostridium ljungdahlii. The following applies: co-substrate methylcob(III)alamin (non-physiological methyl donor); strictly anoxic nitrogen atmosphere; reverse of the hypothesized physiological reaction; fit with substrate inhibition; read-out: apparent KM.

Experiment [2] deals with T1, ClMlp2. The description is as above. Format: biochemical, Clostridium ljungdahlii. Conditions: co-substrate methylcob(III)alamin (non-physiological methyl donor); strictly anoxic nitrogen atmosphere; reverse of the hypothesized physiological reaction; fit with substrate inhibition; substrate in.

Consider `[SeH2]` [selenide], for which the Km with ClMlp2 [1] is 79.8 µM. At ClMlp2 [2], the “KI (selenide substrate inhibition constant)” value was 3.83 mM.
